Data: patent US8987265B2, “Substituted 1,3,5-triazine derivatives of fused bicyclic oxalamide compounds for treatment of Hepatitis C” (priority 2012, dated 2015)

System: HCV pseudoparticles, genotype 1a (H77C) E1 and E2 envelope
Assay: HCV pseudoparticle infection assay (luciferase, Huh7 cells)
Assay type: cell-based
Details: Hepatitis C virus, Huh-7, 48 h, read-out: EC50 (nM) 1a (H77C)

Cc1ccc(NC(=O)C(=O)N2CC3CN(C(=O)c4ccc(Nc5nc(NC6(c7ccc(Cl)cc7)CC6)nc(OCC(F)(F)F)n5)cc4)CC3C2)cc1 (centres unmarked) [Compound 1001] and O=C(Nc1ccc(F)cc1)C(=O)N1CC2CN(C(=O)c3ccc(Nc4nc(NC5(c6ccc(Cl)cc6)CC5)nc(OCC(F)(F)F)n4)cc3)CC2C1 (centres unmarked) [Compound 1008] fall in the same range of EC50: 0.01 to 10 nM for the first, 0.01 to 10 nM for the second.

O=C(NCc1ccc(F)cc1)C(=O)N1CC2CN(C(=O)c3ccc(Nc4nc(NC5(c6ccc(Cl)cc6)CC5)nc(OCC(F)(F)F)n4)cc3)CC2C1 (centres unmarked) [Compound 1002] and O=C(Nc1cccc(F)c1)C(=O)N1CC2CN(C(=O)c3ccc(Nc4nc(NC5(c6ccc(Cl)cc6)CC5)nc(OCC(F)(F)F)n4)cc3)CC2C1 (centres unmarked) [Compound 1006] fall in the same range of EC50: 0.01 to 10 nM for the first, 0.01 to 10 nM for the second.

First: NC(=O)C(=O)N1CC2CN(C(=O)c3ccc(Nc4nc(NC5(c6ccc(Cl)cc6)CC5)nc(OCC(F)(F)F)n4)cc3)CC2C1 (centres unmarked) [Compound 1003]
Second: CNC(=O)C(=O)N1CC2CN(C(=O)c3ccc(Nc4nc(NC5(c6ccc(Cl)cc6)CC5)nc(OCC(F)(F)F)n4)cc3)CC2C1 (centres unmarked) [Compound 1017]
The EC50 of the first is lower: 0.01 to 10 nM for the first, 10 to 1000 nM for the second. The first is the more potent here.

O=C(C(=O)N1CC2CN(C(=O)c3ccc(Nc4nc(NC5(c6ccc(Cl)cc6)CC5)nc(OCC(F)(F)F)n4)cc3)CC2C1)N1CCOCC1 (centres unmarked) [Compound 1004] and O=C(C(=O)N1CC2CN(C(=O)c3ccc(Nc4nc(NC5(c6ccc(Cl)cc6)CC5)nc(OCC(F)(F)F)n4)cc3)CC2C1)N1CCCCC1 (centres unmarked) [Compound 1013] fall in the same range of EC50: 0.01 to 10 nM for the first, 0.01 to 10 nM for the second.

CN(C)C(=O)C(=O)N1CC2CN(C(=O)c3ccc(Nc4nc(NC5(c6ccc(Cl)cc6)CC5)nc(OCC(F)(F)F)n4)cc3)CC2C1 (centres unmarked) [Compound 1005] and CC(C)CNC(=O)C(=O)N1CC2CN(C(=O)c3ccc(Nc4nc(NC5(c6ccc(Cl)cc6)CC5)nc(OCC(F)(F)F)n4)cc3)CC2C1 (centres unmarked) [Compound 1012] fall in the same range of EC50: 0.01 to 10 nM for the first, 0.01 to 10 nM for the second.

O=C(Nc1nncs1)C(=O)N1CC2CN(C(=O)c3ccc(Nc4nc(NC5(c6ccc(Cl)cc6)CC5)nc(OCC(F)(F)F)n4)cc3)CC2C1 (centres unmarked) [Compound 1007] and O=C(Nc1nccs1)C(=O)N1CC2CN(C(=O)c3ccc(Nc4nc(NC5(c6ccc(Cl)cc6)CC5)nc(OCC(F)(F)F)n4)cc3)CC2C1 (centres unmarked) [Compound 1020] fall in the same range of EC50: 0.01 to 10 nM for the first, 0.01 to 10 nM for the second.

Cc1cc(NC(=O)C(=O)N2CC3CN(C(=O)c4ccc(Nc5nc(NC6(c7ccc(Cl)cc7)CC6)nc(OCC(F)(F)F)n5)cc4)CC3C2)no1 (centres unmarked) [Compound 1009] and Cc1nnc(NC(=O)C(=O)N2CC3CN(C(=O)c4ccc(Nc5nc(NC6(c7ccc(Cl)cc7)CC6)nc(OCC(F)(F)F)n5)cc4)CC3C2)s1 (centres unmarked) [Compound 1016] fall in the same range of EC50: 0.01 to 10 nM for the first, 0.01 to 10 nM for the second.

O=C(Nc1cc(F)cc(F)c1)C(=O)N1CC2CN(C(=O)c3ccc(Nc4nc(NC5(c6ccc(Cl)cc6)CC5)nc(OCC(F)(F)F)n4)cc3)CC2C1 (centres unmarked) [Compound 1010] and O=C(Nc1ccc(F)cc1F)C(=O)N1CC2CN(C(=O)c3ccc(Nc4nc(NC5(c6ccc(Cl)cc6)CC5)nc(OCC(F)(F)F)n4)cc3)CC2C1 (centres unmarked) [Compound 1018] fall in the same range of EC50: 0.01 to 10 nM for the first, 0.01 to 10 nM for the second.

O=C(Nc1ccccc1)C(=O)N1CC2CN(C(=O)c3ccc(Nc4nc(NC5(c6ccc(Cl)cc6)CC5)nc(OCC(F)(F)F)n4)cc3)CC2C1 (centres unmarked) [Compound 1011] and O=C(C(=O)N1CC2CN(C(=O)c3ccc(Nc4nc(NC5(c6ccc(Cl)cc6)CC5)nc(OCC(F)(F)F)n4)cc3)CC2C1)N1CCc2ccccc2C1 (centres unmarked) [Compound 1014] fall in the same range of EC50: 0.01 to 10 nM for the first, 0.01 to 10 nM for the second.

O=C(NC1CCCCC1)C(=O)N1CC2CN(C(=O)c3ccc(Nc4nc(NC5(c6ccc(Cl)cc6)CC5)nc(OCC(F)(F)F)n4)cc3)CC2C1 (centres unmarked) [Compound 1015] and CCc1nnc(NC(=O)C(=O)N2CC3CN(C(=O)c4ccc(Nc5nc(NC6(c7ccc(Cl)cc7)CC6)nc(OCC(F)(F)F)n5)cc4)CC3C2)s1 (centres unmarked) [Compound 1019] fall in the same range of EC50: 0.01 to 10 nM for the first, 0.01 to 10 nM for the second.

Same assay, conditions: Hepatitis C virus, Huh-7, 48 h, read-out: EC50 (nM) 1a H77C)

Going from Cc1ccc(NC(=O)C(=O)N2CC3CN(C(=O)c4ccc(Nc5nc(NC6(c7ccc(Cl)cc7)CC6)nc(OCC(F)(F)F)n5)cc4)CC3C2)cc1 (centres unmarked) [Compound 1001] to CNC(=O)C(=O)N1CC2CN(C(=O)c3ccc(Nc4nc(NC5(c6ccc(Cl)cc6)CC5)nc(OCC(F)(F)F)n4)cc3)CC2C1 (centres unmarked) [Compound 1017], the EC50 rises from 0.12 nM to 11.1 nM (92-fold). The first is the more potent here.

CN(C)C(=O)C(=O)N1CC2CN(C(=O)c3ccc(Nc4nc(NC5(c6ccc(Cl)cc6)CC5)nc(OCC(F)(F)F)n4)cc3)CC2C1 (centres unmarked) [Compound 1005] gave an EC50 of 2.68 nM.
